{"source": "patent US20200215099A1", "about": "“NON-ANTICOAGULANT SULFATED OR SULFONATED POLYSACCHARIDES” (Baxalta Incorporated, priority 2012, published 2020)", "key": {"[1]": {"test_system": "FVIII-inhibited guinea pigs", "assay": "Ex-vivo whole blood TEG in FVIII-inhibited guinea pigs", "design": "species or system guinea pig", "experimental": "Male Dunkin Hartley guinea pigs were intravenously injected with a goat anti-human FVIII inhibitor plasma at a dose of 42 BU/kg (1.9 mL/kg) 45 min before sampling. After 40 min, NASP was intravenously administered to the animals at 0.05, 0.15, 0.45 or 1.35 mg/kg (N=5 per group). 300 U/kg FEIBA (Baxter, BioScience, Austria) served as a positive control and saline as a vehicle control. Shortly after the injection, the Vena cava was punctured and blood was collected in the presence of citrate (ratio 1:9) for whole blood TEG analysis. Measurements were performed using a thromboelastography (TEG) hemostasis analyzer 5000 (Haemonetics Corp, USA) at 37° C. Every blood sample was prepared by pre-warming 204 of a 0.2 M CaCl2) solution in a TEG cuvette at 37° C. adding 340 μL of blood, mixing, and then immediately starting the TEG recording. The measurement proceeded for at least 120 min. The TEG parameters of clotting time (R-time), rapidity of clot strengthening (angle) and maximum clot firmness (MA) were recorded. The primary endpoint R-time was plotted and the median value of the different dosing groups compared with each other."}, "FVIII-inhibited plasma": {"test_system": "FVIII-inhibited plasma", "assay": "Thrombin generation assay (CAT) in FVIII-inhibited plasma", "assay_type": "biochemical, human", "experimental": "The procoagulant activity of the sulfated polysaccharides was assessed by the Thrombin Generation Assay (TGA). The influence of each sulfated polysaccharide on thrombin generation was measured in duplicate via CAT in a Fluoroskan Ascent® reader (Thermo Labsystems, Helsinki, Finland; filters 390 nm excitation and 460 nm emission) following the slow cleavage of the fluorogenic substrate Z-Gly-GIy-Arg-AMC (Hemker H C. Pathophysiol Haemost Thromb (2003) 33(4):15). To each well of a 96 well microplate (Immulon 2HB, clear U-bottom; Thermo Electron) 80 μL of pre-warmed (37° C.) goat anti FVIII antibody treated human normal plasma pool was added. For triggering thrombin generation by tissue factor, 104 of PPP reagent containing a certain amount of recombinant human tissue factor (rTF) and phospholipid vesicles composed of phosphatidylserine, phosphatidylcholine and phosphatidylethanolamine (final concentration of 4 μM) (Thrombinoscope BV, Maastricht, The Netherlands) was added. For studying the procoagulant activity of sulfated polymers a final TF concentration of 1 pM was used to provide FVIII and TFPI sensitivity of the test system. Just prior to putting the plate into the pre-warmed (37° C.) reader, 10 µL of test or reference sample or calibrator compound was added. Thrombin generation was started by dispensing 204 of FluCa reagent (Thrombinoscope BV, Maastricht, The Netherlands) containing fluorogenic substrate and Hepes buffered CaCl2 (100 mM) into each well and fluorescence intensity was recorded at 37° C.\nThe parameters of the resulting thrombin generation curves were calculated using the Thrombinoscope™ software (Thrombinoscope BV, Maastricht, The Netherlands) and thrombin calibrator to correct for inner filter and substrate consumption effects (Hemker H C, Pathophysiol Haemost Thromb (2003) 33(4):15). With the thrombin calibrator as a reference, the molar concentration of thrombin in the test wells was calculated by the software. The thrombin amounts at the peak and peak times of each thrombin generation curve (peak thrombin, nM) were plotted against sulfated polysaccharide concentrations resulting in the procoagulant profile of these compounds. The thrombin generation assay results are illustrated in the figures appended hereto. From these plots half maximal effective concentrations (EC50) values are determined using a sigmoidal curve fit. The EC50 represents the concentration at which the half maximal thrombin peak is reached."}, "[2]": {"assay": "Pharmacokinetics after intravenous administration", "assay_type": "in vivo, CD rats", "experimental": "The preparations were either unfractionated (average MW of 63 kD) or fractionated by a filter method (lots A and B with an average MW of 12 and 14 kD, respectively). The substances were prepared in a physiological saline solution and injected at 5 mL/kg. Each group consisted of three animals. Blood sample were collected in the presence of citrate (ratio 1:9) before dosing and 5, 30 min, 1, 3, 6, and 10 h after the dosing. Platelet-poor plasma was prepared by two centrifugation steps at 3000 rpm. The plasma samples were analyzed for by a liquid-chromatography-mass spectroscopy, a substance-specific method for S-6-CI."}, "[3]": {"assay": "Pharmacokinetics after oral administration", "assay_type": "in vivo, CD rats", "experimental": "The preparations were either unfractionated (average MW of 24 kD) or fractionated by a filter method (average MW of 14 kD). The substances were prepared in a physiological saline solution without enhancer or with 0.8 wt % DOC or with 3 wt % chitosan+0.5 mg/mL bromelain. Each group dosed with NASP consisted of six rats. For each formulation, three additional rats served as vehicle controls. Blood samples were collected in the presence of citrate (ratio 1:9) before dosing and 15, 30 min, 1, 5, and 7 h after the dosing. Platelet-poor plasma was prepared by two centrifugation steps at 3000 rpm for 10 min.\nThe NASPs in the plasma samples were detected by a fluorescence assay that uses the dye HeparinRed that specifically binds to sulfated polysaccharides. Experiments were performed in a black half-area 96-well microtiter plate (Costar). For the S-6-CI standard curves (0.185 to 2.5 μg/mL), 10 μL of rat plasma was spiked with 5 μL of S-6-CI and mixed with 40 μL of human pooled plasma to minimize the matrix effect of individual animals. Then 5 μl HeparinRed dye was added and incubated in the dark at RT for 5 min. Plasma samples of the dosed animals were treated accordingly, however, the 5 μL S-6-CI were replaced by buffer. Fluorescent signals were detected with a Tecan Safire2™ microplate fluorescence reader (Ex/Em 580/620 nm) and the S-6-CI quantified based on the S-6-CI standard curve. […]"}}, "data": [{"substance": "sulfated 6-carboxy-icodextrin", "values": [{"measurement": "median R-time (clotting time)", "setting": "[1]; 0.15 and 0.45 mg/kg i.v., no clotting after 2 hours without treatment", "value": 110, "unit": "min"}, {"measurement": "procoagulant effect, reduction in R-time (in words)", "setting": "[1]; TEG five minutes after i.v. administration, NASP at 0.15 and 0.45 mg/kg", "value": "procoagulant effect superior to vehicle control"}, {"measurement": "procoagulant activity (in words)", "setting": "FVIII-inhibited plasma", "value": "good procoagulant activity in CAT assays at very low concentrations"}, {"measurement": "procoagulant at (concentration)", "setting": "FVIII-inhibited plasma; 37° C., 1 pM hTF, 4 μM PL", "value": "about 0.01 μg/mL"}, {"measurement": "EC50", "setting": "FVIII-inhibited plasma; half maximal thrombin peak, 1 pM hTF, 4 μM PL", "value": 0.07, "unit": "µg/mL"}, {"measurement": "in vivo recovery (plasma concentration)", "setting": "[2]; 5 min after i.v. dosing of 5 mg/kg", "value": "28 to 44", "unit": "µg/mL"}, {"measurement": "half-life", "setting": "[2]; i.v. 5 mg/kg, estimated from early time points", "value": "30 to 45", "unit": "min"}, {"measurement": "time of highest plasma level after dosing", "setting": "[3]; oral 50 mg/kg", "value": 60, "unit": "min"}, {"measurement": "plasma levels at all time points", "setting": "[3]; oral 50 mg/kg with chitosan+bromelain", "value": "< 300", "unit": "ng/mL"}]}]}
